Patent publication US7132287B2, “Method for neural stem cell differentiation using 5HT-1A agonists” (Psychiatric Genomics, Inc., priority 2001, dated 2006)

Experiments:
cerebellar stem cells [1] = experiment: Astrocytic differentiation of cerebellar stem cells (GFAP positive cells); format: cell-based, rat; settings: for % GFAP positive cells: Table 2 experiment
Experimental: (§1) Drug treatments. Stem cells obtained as described above were treated with drugs and subjected to differentiation protocols in the second passage. Cells were plated at a density of 1×10^4 cells per well of a 12-well petridish (Falcon).
Drug treatments were started on the next day. […] The WAY 100635 antagonist compound was used simultaneously with buspirone or serotonin in the blocking experiments. Positive and negative control cultures were those treated with BDNF and FGF alone, respectively.
Cells were treated with the designated concentrations of drugs or combinations thereof, daily, and were fed every alternate day with fresh medium. Experiments were maintained for about 6–10 days in most cases. Cells were fixed on about day 7–11 with a 4% solution of para-formaldehyde (PFA) in PBS, prepared as follows:
Immunofluorescent staining and visualization. After fixation, the PBS was aspirated from the fixed cells and the cells were treated with blocking solution (10% normal goat serum-NGS-Jackson Labs), 0.3% Triton-Sigma, in PBS) to saturate non-specific sites and permeabilize the cells. Following blocking, cells were incubated with the following designated primary antibodies diluted in 5% NGS for 1 hour at room temperatuare: mouse monoclonal anti-MAP-2 (Sigma): 1/250 dilution; mouse monoclonal anti-β tubulin III (Covance): 1/600 dilution; mouse anti-monoclonal glial fibrillary acidic protein (GFAP-ICN Biomedicals): 1/100 dilution.
After the 1 hour incubation, cells were washed three times for 5 min each with PBS followed by incubation of a goat anti-mouse secondary antibody conjugated with stains Cy2 and Cy3 (Jackson Labs) for 1 hr at RT (dilution 1/100 as with the primary antibodies). Following three 5 minute washes with PBS, cells were incubated with the nuclear stain bis-benzimide (Sigma) for 10 min at RT. Cells were then washed 3 times with ultra-pure water and glass coverslips were mounted on them using AquaPolymount (Polysciences, Inc., PA) The mount was allowed to dry and the dishes were stored at 4° C.
For visualization of staining, the mounted cells were viewed under a fluorescent microscope using the appropriate ultra violet filters. An eyepiece with an engraved grid was used to count the cells that stained positive for β tubulin III (TuJ-1), MAP2 or GFAP. The percent of cells positive for a given antigen was estimated by counting nuclei of all cells present in the same field, as the nuclei of the cells stain blue with the bis benzimide. Five fields were counted per treatment condition, and averages with standard deviations were calculated.
To evaluate whether buspirone affected differentiation of neural stem cells into other neural cell types such as astrocytes, the buspirone-treated cerebellar cell cultures described above were subjected to immunofluorescence using a monoclonal antibody against an astrocyte-specific marker, glial fibrillary acidic protein, or GFAP.

cerebellar stem cells [2] = experiment: Neuronal differentiation of cerebellar stem cells (TuJ1 positive cells); format: cell-based, rat
From the text: Isolation and quantitation of cerebellar stem cells. Neural stem cells were isolated from rat embryos (obtained from Taconic) at the 19th day of gestation (E19). The rats were sacrificed by inhalation of excess carbon dioxide. The abdomen of the rat was cleaned with 70% ethanol and the uterus was removed quickly and aseptically on the bench top. The uterus was placed in ice cold PBS (GIBCO Cat. # 20012-027) in a 200-ml beaker.
The cerebellar tissue was dissected under a microscope according to the following procedure and collected in a 15-ml tube containing HBSS on ice. The dissection should be completed in 1–2 hours (optimally) and the pH of the HBSS should remain neutral. First, the neck of the embryos was severed towards the bottom and the heads were collected in cold PBS. Next, the skin and scalp was removed from neck and head of the embryo. The brain, including the cerebral cortex, midbrain, cerebellum and some of the spinal cord, was removed by dissection under a microscope and transfered into a clean dish with fresh, cold PBS. The cerebellar region was dissected and cleaned of extraneous tissue, including removal of the meninges, and transferred into cold HBSS in a clean 15 ml tube.
The tube containing the cerebellar tissue was centrifuged at 1,000 RPM for 2 min at 15 C., followed by slow, careful aspiration of the HBSS supernatant (care should be taken to avoid aspirating tissue). (It is best to limit the centrifugation steps as much as possible.) About 1 to 3 ml of DMEM/F12/N2 medium (see below) was immediately added to the remaining tissue; the volume of medium depends on the quantity of the dissected tissue. The tissue was gently triturated about 8 to 10 times using a P-1000 Pipetteman until the tissue was dissociated (as evidenced by cloudy solution), then the tube was incubated in the hood for 5 minutes at room temperature to permit settlement of small particles of undissociated tissue. The supernatant was then transferred into a fresh tube, taking care to avoid the smaller particles of tissue that remained at the bottom of the tube.
Plating and expansion of cerebellar stem cells. The triturated cell suspension of E19 rat cerebellum was seeded into pre-coated 10 cm dishes at 2×10^6 cells per dish. This is denoted as the P0 culture (passage 0). The cells were grown in 5 ml of DMEM/F12/N2 supplemented with 25 mg/L insulin and 10 ng/ml bFGF at 37 C, 5% CO2 and 90% humidity.
Cells were fed daily with 10 ng/ml bFGF. The medium was changed one day after the cells were seeded, and thereafter every other day. On about day 4 of the culture, or when cells reached 70% confluence, the culture was passaged (see “Passage of cerebellar stem cells” below) and seeded into 10 cm dishes at an initial density of 2×10^6 cells per dish. This is denoted as the P1 culture (passage 1). The passaged cells at P1 were grown in DMEM/F12/N2 medium supplemented with 25 mg/L insulin and 10 ng/ml bFGF. The medium was changed every other day.
After two days of culture, some cells were passaged into a P2 culture, and some were seeded in 12-well tissue culture plates for experimental use. One ml of DMEM/F12/N2 medium was used per well of a 12-well plate at 2×10^4 cells per well. Experimental treatments were initiated the day after passage.
as §1
Drug treatments were started on the next day. […] The WAY 100635 antagonist compound was used simultaneously with buspirone or serotonin in the blocking experiments.

## O=C1CC2(CCCC2)CC(=O)N1CCCCN1CCN(c2ncccn2)CC1 [buspirone, 8-[4-[4-(2-pyrimidinyl)-1-piperazinyl]butyl]-8-azaspiro[4,5]decane-7,9-dione]
Cerebellar stem cells [1]; 10 nM
  % GFAP positive cells: 26.3 ± 3.7%
Cerebellar stem cells [1]; 30 nM to 1 μM, FIG. 1B and FIG. 4
  effect on astrocytic differentiation: does not have any appreciable reproducible effects
Cerebellar stem cells [1]; 30 nM
  % GFAP positive cells: 12.9 ± 1.9%
Cerebellar stem cells [1]; 100 nM
  % GFAP positive cells: 20.6 ± 5.2%
Cerebellar stem cells [1]; 300 nM
  % GFAP positive cells: 21.4 ± 4.6%
Cerebellar stem cells [1]; 1000 nM
  % GFAP positive cells: 27.0 ± 9.0%
Cerebellar stem cells [2]; 10 nM, Table 2 experiment
  % Tuj 1 positive cells: 40.0 ± 3.7%
Cerebellar stem cells [2]; 10 nM, Table 3 experiment
  % Tuj 1 positive cells: 30.7 ± 2.33%
Cerebellar stem cells [2]; 30 nM, Table 2 experiment
  % Tuj 1 positive cells: 41.2 ± 6.7%
Cerebellar stem cells [2]; 30 nM, Table 3 experiment
  % Tuj 1 positive cells: 37.4 ± 2.6%
Cerebellar stem cells [2]; 100 nM, Table 2 experiment
  % Tuj 1 positive cells: 33.1 ± 2.6%
Cerebellar stem cells [2]; 100 nM, Table 3 experiment
  % Tuj 1 positive cells: 46.6 ± 3.8%
Cerebellar stem cells [2]; 100 nM, Table 5 experiment
  % TuJ1 positive cells: 54.4 ± 2.1%
Cerebellar stem cells [2]; 300 nM, Table 2 experiment
  % Tuj 1 positive cells: 26.1 ± 3.9%
Cerebellar stem cells [2]; 500 nM, Table 4 experiment
  % TuJ1 positive cells: 56.8 ± 7.1%
Cerebellar stem cells [2]; 500 nM, Table 5 experiment
  % TuJ1 positive cells: 64.8 ± 2.1%
Cerebellar stem cells [2]; 1000 nM, Table 2 experiment
  % Tuj 1 positive cells: 21.9 ± 3.9%
Cerebellar stem cells [2]; 1000 nM, Table 3 experiment
  % Tuj 1 positive cells: 40.3 ± 2.8%
Cerebellar stem cells [2]; 10 μM, Table 5 experiment
  % TuJ1 positive cells: 67.9 ± 10.2%
Cerebellar stem cells [2]; 100 μM, Table 5 experiment
  % TuJ1 positive cells: 68.5 ± 6.5%
Cerebellar stem cells [2]; FIG. 1, lane 4
  concentration inducing the highest percentage of neuronal differentiation: ~100 nM
Cerebellar stem cells [2]; FIG. 1, lanes 2–5, dosage range 10 nM to 300 nM, about 6 days
  neuronal differentiation of neural stem cells (percent of neurons, TuJ1 positive): 40–55%
Cerebellar stem cells [2]; FIG. 2, lane 3, buspirone 500 nM, untreated control less than 20%
  differentiation of neurons: 50%
Cerebellar stem cells [2]; concentrations from 10 nm to 100 um, Tables 2–5
  promotion of neuronal differentiation of neural stem cells (in words): effective at promoting neuronal differentiation
